In assay [1] the test system is lymphoblasts from G2019S LRRK2 PD patients. As to conditions: for Centrosomal cohesion deficits: three lymphoblast lines from G2019S LRRK2 PD patients, short-term application of LRRK2 kinase inhibitor, Figure 1A; for reversal of the cohesion deficit: five G2019S LRRK2 PD patients, dose-response.
Text: Peripheral blood mononuclear cells (PBMCs) were collected and processed according to manufacturer's instructions, and lymphocytes were immortalized by infection with Epstein-Barr virus (EBV) as described. Briefly, cell lines were established from freshly isolated or cryopreserved lymphocytes using standard EBV transformation protocols which include cell separation by gradient centrifugation and lymphocyte growth enhancement by 1% (v/v) of the mitogenic phytohemagglutinin-M (PHA-M, ThermoFisher Scientific, 10576015). Cell lines were maintained in RPMI 1640 medium supplemented with 20 % fetal bovine serum, 2 % L-glutamine, 20 units/mL penicillin and 20 µg/ml streptomycin in T75 flasks in 5 % CO2 at 37 °C. Cells were maintained at a density of 10^6 cells/mL, with cell density monitored every other day using trypan blue staining.
Coverslips (13 mm diameter) were placed into 24-well plates and coated with Cell-Tak Cell and Tissue Adhesive solution (Corning, nr. 354240) according to manufacturer's instructions. After 20 minutes incubation at room temperature, the solution was removed, and coverslips were rinsed twice with distilled water followed by air-drying. Lymphoblast cells (200,000/well) were added to dry coated coverslips, and cells attached by slight centrifugation at 690 g for 10 minutes at room temperature (without brake). Cells were fixed with 2 % paraformaldehyde (PFA) in phosphate-buffered saline (PBS) for 20 minutes at room temperature, followed by 5 min of ice-cold methanol fixation before permeabilization with 0.2% Triton-X100/PBS for 20 min. After blocking for 1 hour in 0.5% BSA (w/v) in 0.2% Triton-X100/PBS (blocking buffer), cells were incubated with primary antibodies overnight at 4 °C in blocking buffer. Primary antibodies included mouse monoclonal anti-γ-tubulin (1:1000; Abcam ab11316), rabbit polyclonal anti-pericentrin (1:1000; Abcam ab4448) or rabbit monoclonal anti-phospho-Rab10 (1:100; Abcam ab237703). The following day, coverslips were washed three times 10 minutes in 0.2% Triton-X100/PBS, followed by incubation with secondary antibodies (Alexa488-conjugated goat anti-mouse (1:1000; Invitrogen) and Alexa594-conjugated goat anti-rabbit (1:1000; Invitrogen)) in blocking buffer for 1 hour. Coverslips were washed three times in 0.2% Triton-X100/PBS, rinsed in PBS and mounted in mounting medium with DAPI (Vector Laboratories). For staining with the anti-phospho-Rab10 antibody, the methanol fixation was omitted, and 0.2% Triton-X100 was replaced by 0.1% saponin throughout. For treatment of cells with MLi2, cells were seeded on coated coverslips as described above, and incubated with or without MLi2 (generous gift of D. Alessi, University of Dundee, UK) (or DMSO as control) at the indicated concentrations for two hours at 37 °C, before attachment by slight centrifugation followed by fixation as described above.
Images were acquired on a Leica TCS-SP5 confocal microscope using a 63X 1.4 NA oil UV objective (HCX PLAPO CS). Images were collected using single excitation for each wavelength separately, and dependent on secondary antibodies (488 nm Argon Laser line and a 498-551 nm emission band pass; 543 HeNe laser line and a 615-671 nm emission band pass; 405 nm UV diode and a 418-467 nm emission band pass). Around 30 image sections of selected areas were acquired with a step size of 0.5 µm, and z-stack images analyzed and processed using Leica Applied Systems (LAS AF6000) image acquisition software. The same laser intensity settings, exposure times and zoom were used for image acquisition of individual experiments to be quantified.
For a further assay, the system named is sporadic PD lymphoblasts. In words: Centrosomal cohesion deficit in lymphoblasts from sporadic PD patients (immunofluorescence, confocal imaging). The assay is classed as cell-based, human. As to conditions: subset of sporadic PD patients with deficit (not G2019S carriers); short-term application of 10 nM MLi2; Figures 4A to 4D.

The text below walks through data of patent EP3769768A1, “COMPOUNDS USEFUL FOR THE TREATMENT OF PARKINSON S DISEASE” (priority 2019, dated 2021).

Like-named read-outs stand apart in the source and are kept apart here.

Text for sporadic PD lymphoblasts: Peripheral blood mononuclear cells (PBMCs) were collected and processed according to manufacturer's instructions, and lymphocytes were immortalized by infection with Epstein-Barr virus (EBV) as described. Briefly, cell lines were established from freshly isolated or cryopreserved lymphocytes using standard EBV transformation protocols which include cell separation by gradient centrifugation and lymphocyte growth enhancement by 1% (v/v) of the mitogenic phytohemagglutinin-M (PHA-M, ThermoFisher Scientific, 10576015). Cell lines were maintained in RPMI 1640 medium supplemented with 20 % fetal bovine serum, 2 % L-glutamine, 20 units/mL penicillin and 20 µg/ml streptomycin in T75 flasks in 5 % CO2 at 37 °C. Cells were maintained at a density of 10^6 cells/mL, with cell density monitored every other day using trypan blue staining. […]
Images were acquired on a Leica TCS-SP5 confocal microscope using a 63X 1.4 NA oil UV objective (HCX PLAPO CS). […] Around 30 image sections of selected areas were acquired with a step size of 0.5 µm, and z-stack images analyzed and processed using Leica Applied Systems (LAS AF6000) image acquisition software. The same laser intensity settings, exposure times and zoom were used for image acquisition of individual experiments to be quantified.

In the case of `O=C(Nc1cccnc1)c1cc(-c2ccnc(F)c2)ccc1OCc1ccccc1` [GSK2578215A, 2-(benzyloxy)-5-(2-fluoropyridin-4-yl)-N-(pyridin-3-yl)benzamide], the Centrosomal cohesion deficits entry in assay [1] is recorded as “could be reversed”.
As for `CC1CN(c2cc(-c3n[nH]c4ccc(OC5(C)CC5)cc34)ncn2)CC(C)O1` (centres unmarked) [MLi2, 3-(4-Pyrimidinyl) Indazole], the figures for the Centrosomal cohesion deficits entry (with sporadic PD lymphoblasts; in assay [1]) were “reverted” and “could be reversed”, respectively. In addition, the “reversal of the cohesion deficit” value in assay [1] (1 nM MLi2, Figures 3A and 3B) was “significant reversal”; in assay [1] (10 nM MLi2, Figures 3A and 3B) it was “complete reversal”. Further, in assay [1] (larger sampling, individual samples, Figure 4C), the “Centrosomal deficits in all G2019S LRRK2 PD samples” value is on record as “reverted by MLi2 in all cases”. Also, the centrosomal alterations entry in assay [1] (larger sampling, short-term application of 10 nM MLi2, Figures 4A and 4B) is listed as “reverted”. The “centrosomal cohesion deficits upon removal of kinase inhibitor” value in assay [1] (washout of inhibitor, G2019S LRRK2 PD samples, Figures 3A and 3B) is “reverted back to the ones observed in the absence of inhibitor”.
